For experiment [1], the target named is T1, MAGL (Mus musculus, UniProt O35678).
T1 sequence (O35678 1-303): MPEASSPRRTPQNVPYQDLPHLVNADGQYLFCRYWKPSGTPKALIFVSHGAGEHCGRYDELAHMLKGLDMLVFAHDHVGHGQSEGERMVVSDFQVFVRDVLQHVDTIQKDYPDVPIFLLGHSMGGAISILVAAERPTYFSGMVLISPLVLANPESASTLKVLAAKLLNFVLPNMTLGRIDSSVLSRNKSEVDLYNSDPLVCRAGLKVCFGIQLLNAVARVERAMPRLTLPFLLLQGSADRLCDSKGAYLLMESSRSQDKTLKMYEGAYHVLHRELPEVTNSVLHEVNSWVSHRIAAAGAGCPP
As to the kind of experiment: In vitro competitive activity-based protein profiling, MAGL, mouse. The conditions noted are these: read-out: MAGL % inh. 1 μM (mouse).

Experiment [2] deals with T2, MAGL (Homo sapiens, UniProt Q99685).
T2 sequence (Q99685 1-303): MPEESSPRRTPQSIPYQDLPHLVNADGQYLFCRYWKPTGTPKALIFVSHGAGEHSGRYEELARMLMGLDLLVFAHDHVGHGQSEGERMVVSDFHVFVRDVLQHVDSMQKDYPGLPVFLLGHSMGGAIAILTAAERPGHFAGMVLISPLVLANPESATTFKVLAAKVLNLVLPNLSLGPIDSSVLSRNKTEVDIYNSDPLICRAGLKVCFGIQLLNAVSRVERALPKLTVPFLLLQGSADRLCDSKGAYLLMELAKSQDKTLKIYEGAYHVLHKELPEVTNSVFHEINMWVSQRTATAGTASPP
As to the kind of experiment: In vitro competitive activity-based protein profiling, MAGL, human. The conditions noted are these: for inhibition at 1 µM: read-out: MAGL % inh. 1 μM (human).

Molecules are shown by their SMILES.

For `O=C(O)c1nn(C(=O)N2C[C@H]3C[C@H](OCc4cc(F)cc(Cl)c4)C[C@H]3C2)cc1Cl` [Example 296, 4-chloro-1-(trans-5-((3-chloro-5-fluorobenzyl)oxy)octahydrocyclopenta [c]pyrrole-2-carbonyl)-1H-pyrazole-3-carboxylic acid], the inhibition at 1 µM at MAGL [1] and on MAGL [2] was above 75% throughout.
On to `O=C(O)c1ccn(C(=O)N2C[C@H]3C[C@H](Oc4cc(Cl)ccc4C(F)(F)F)C[C@H]3C2)n1` [Example 297, 1-(trans-5-(5-chloro-2-(trifluoromethyl)phenoxy)octahydro-cyclopenta[c]pyrrole-2-carbonyl)-1H-pyrazole-3-carboxylic acid], for which the inhibition at 1 µM at MAGL [1] and on MAGL [2] was above 75% each time.
In the case of `COc1ccc(Cl)cc1CN1CCC2(CCN(C(=O)n3ccc(C(=O)O)n3)CC2)C1` [Example 282, 1-(2-(5-chloro-2-methoxybenzyl)-2,8-diazaspiro[4.5]decane-8-carbonyl)-1H-pyrazole-3-carboxylic acid], the results for the inhibition at 1 µM on MAGL [1] and on MAGL [2] were 0 to 25% and 50 to 75%, respectively.
For `O=C(O)c1nn(C(=O)N2CCN(Cc3cc(F)cc(Oc4ccc(Cl)cc4)c3)CC2)cc1Cl` [Example 378, 4-chloro-1-(4-(3-(4-chlorophenoxy)-5-fluorobenzyl)piper-azine-1-carbonyl)-1H-pyrazole-3-carboxylic acid] the same measures were above 75% and above 75%.
`O=C(O)c1nn(C(=O)N2CCN(Cc3cc(F)cc(Oc4ccc(Cl)cc4)c3)CC2)cc1C(F)(F)F` [Example 408]: the inhibition at 1 µM on MAGL [1] and at MAGL [2] was above 75% in each case.
For `O=C(O)c1ccn(C(=O)N2CCC3(CCN(Cc4cc(Cl)ccc4OC(F)(F)F)C3)CC2)n1` [Example 371, 1-(2-(5-chloro-2-(trifluoromethoxy)benzyl)-2,8-diazaspiro[4.5]decane-8-carbonyl)-1H-pyrazole-3-carboxylic acid], the inhibition at 1 µM on MAGL [1] and on MAGL [2] was above 75% in each case.
As for `O=C(O)c1ccn(C(=O)N2CCN(Cc3cc(F)cc(Oc4cccc(Cl)c4)c3)CC2)n1` [Example 321, 1-(4-(3-(3-chlorophenoxy)-5-fluorobenzyl)piper-azine-1-carbonyl)-1H-pyrazole-3-carboxylic acid], the inhibition at 1 µM on MAGL [1] and at MAGL [2] was above 75% each time.
For `O=C(O)c1ccn(C(=O)N2CCC3(CCN(Cc4cc(Cl)ccc4C(F)(F)F)CC3)CC2)n1` [Example 217, 1-(9-(5-chloro-2-(trifluoromethyl)benzyl)-3,9-diazaspiro[5.5]undecane-3-carbonyl)-1H-pyrazole-3-carboxylic acid], the inhibition at 1 µM on MAGL [1] and at MAGL [2] was above 75% in each case.
With `C[C@@H]1CN(Cc2ccc(Cl)c(-c3nccs3)c2)CCN1C(=O)n1ccc(C(=O)O)n1` [Example 299, (R)-1-(4-(4-chloro-3-(thiazol-2-yl)benzyl)-2-methylpiperazine-1-carbonyl)-1H-pyrazole-3-carboxylic acid], the inhibition at 1 µM at MAGL [1] and on MAGL [2] was above 75% each time.
Take `O=C(O)c1ccn(C(=O)N2CCN(Cc3cccc(Oc4cccc(C(F)(F)F)n4)c3)CC2)n1` [Example 353, 1-(4-(3-((6-(trifluoromethyl)pyridin-2-yl)oxy)benzyl)piper-azine-1-carbonyl)-1H-pyrazole-3-carboxylic acid]: the inhibition at 1 µM on MAGL [1] and on MAGL [2] was above 75% each time.
As to `O=C(O)c1ccn(C(=O)N2CCN(Cc3cccc(Oc4ccc(C(F)(F)F)nc4)c3)CC2)n1` [Example 354, 1-(4-(3-((6-(trifluoromethyl)pyridin-3-yl)oxy)benzyl)piper-azine-1-carbonyl)-1H-pyrazole-3-carboxylic acid], the inhibition at 1 µM on MAGL [1] and on MAGL [2] was above 75% each time.
As for `O=C(O)c1ccn(C(=O)N2CCC3(CCN(Cc4cc(Cl)ccc4N4CCC4)C3)CC2)n1` [Example 317, 1-(2-(2-(azetidin-1-yl)-5-chlorobenzyl)-2,8-diazaspiro[4.5]decane-8-carbonyl)-1H-pyrazole-3-carboxylic acid], the inhibition at 1 µM at MAGL [1] and at MAGL [2] was above 75% throughout.
Turning to `O=C(O)c1ccn(C(=O)N2CCC3(CCN(Cc4cccc(-c5ccccc5)c4Cl)C3)CC2)n1` [Example 358, 1-(2-((2-chloro-[1,1′-biphenyl]-3-yl)methyl)-2,8-diazaspiro[4.5]decane-8-carbonyl)-1H-pyrazole-3-carboxylic acid], the inhibition at 1 µM on MAGL [1] and on MAGL [2] was above 75% in each case.
`CC(C)(O)COc1cccc(CN2CCN(C(=O)n3ccc(C(N)=O)n3)CC2)c1Cl` [Example 37, 1-(4-(2-Chloro-3-(2-hydroxy-2-methylpropoxy)benzyl)piperazine-1-carbonyl)-1H-pyrazole-3-carboxamide]: the inhibition at 1 µM on MAGL [1] and on MAGL [2] was above 75% throughout.
Take `O=C(O)c1ccn(C(=O)N2CCC3(CCN(Cc4ccc(N5CC6COCC6C5)cc4Cl)C3)CC2)n1` (stereo not shown) [Example 400, 1-(2-(2-chloro-4-(tetrahydro-1H-furo[3,4-c]pyrrol-5(3H)-yl)benzyl)-2,8-diazaspiro[4.5]decane-8-carbonyl)-1H-pyrazole-3-carboxylic acid]: the inhibition at 1 µM on MAGL [1] lay within 0 to 25%. The inhibition at 10 µM at MAGL [2] (read-out: MAGL % inh. (human) at 10 uM) was above 75%.
For `CC(C)(O)COc1cccc(CN2CCN(C(=O)n3ccc(C(=O)O)n3)CC2)c1Cl` [Example 213, 1-(4-(2-chloro-3-(2-hydroxy-2-methylpropoxy)benzyl)piperazine-1-carbonyl)-1H-pyrazole-3-carboxylic acid], the inhibition at 1 µM on MAGL [1] and on MAGL [2] was above 75% in each case.
Consider `O=C(O)c1ccn(C(=O)N2CCC3(CCCN3Cc3ccc(C(F)(F)F)cc3N3CCN4CCC[C@@H]4C3)CC2)n1` [Example 417, (R)-1-(1-(2-(hexahydropyrrolo[1,2-a]pyrazin-2(1H)-yl)-4-(trifluoromethyl)benzyl)-1,8-diazaspiro[4.5]decane-8-carbonyl)-1H-pyrazole-3-carboxylic acid], for which the inhibition at 1 µM at MAGL [1] fell in the range of 0 to 25%; at MAGL [2], 25 to 50%.
Taken in the same sequence, the figures for `O=C(O)c1ccn(C(=O)N2CCN(Cc3ccc(C(F)(F)F)cc3N3CC4CCC(C3)O4)CC2)n1` [Example 380, 1-(4-(2-(8-oxa-3-azabicylco[3.2.1]octan-3-yl)-4-(trifluoromethyl)benzyl)piperazine-1-carbonyl)-1H-pyrazole-3-carboxylic acid] were above 75% and above 75%.
Consider `O=C(O)c1ccn(C(=O)N2CCC(OCc3cc(N4CCCC4)cc(C(F)(F)F)c3)CC2)n1` [Example 331, 1-(4-((3-(pyrrolidin-1-yl)-5-(trifluoromethyl)benzyl)oxy)piper-idine-1-carbonyl)-1H-pyrazole-3-carboxylic acid], for which the inhibition at 1 µM at MAGL [1] and on MAGL [2] was above 75% each time.
Turning to `O=C(O)c1ccn(C(=O)N2CCN(Cc3cccc(Oc4cccnn4)c3)CC2)n1` [Example 229, 1-(4-(3-(pyridazin-3-yloxy)benzyl)piper-azine-1-carbonyl)-1H-pyrazole-3-carboxylic acid], the inhibition at 1 µM at MAGL [1] lay within 0 to 25%; on MAGL [2], 25 to 50%.

Source of the values: patent US10266497B2 (ABIDE THERAPEUTICS, INC., priority 2017, dated 2019).
